# Test results as given in patent publication US9115101B2 (Genentech, Inc., priority 2012, dated 2015).
# Molecular target: T1, RORc ligand binding domain (Homo sapiens, UniProt P51449)
# T1 construct: host or cells: E. coli
# T1 sequence (P51449 269-508 limits assumed): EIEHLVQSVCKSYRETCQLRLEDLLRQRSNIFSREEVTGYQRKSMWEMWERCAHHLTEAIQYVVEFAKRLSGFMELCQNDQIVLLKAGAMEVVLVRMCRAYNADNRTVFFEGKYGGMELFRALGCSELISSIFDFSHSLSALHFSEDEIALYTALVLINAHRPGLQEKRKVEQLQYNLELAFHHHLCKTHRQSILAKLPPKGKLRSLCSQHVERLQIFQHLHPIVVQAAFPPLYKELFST
# Experiment: In Vitro RORc Ligand Binding Assay (25-[3H]hydroxycholesterol radioligand filtration)
# Conditions: In Vitro RORc Ligand Binding Assay; Table 4; read-out: RORc IC50
row,SMILES,IC50 [nM]
1,"C[C@H]1CCC(c2ccccc2)S(=O)(=O)N1Cc1ccc(C(=O)N2CCN(C(=O)C3CC3)CC2)cc1 (stereo partly drawn) [Example 288, (4-Cyclopropane carbonyl-piperazin-1-yl)-[4-((3S)-methyl-1,1-dioxo-6-phenyl-[1,2]thiazinan-2-ylmethyl)-phenyl]-methanone]",2670
2,"C[C@H]1CCC(c2ccccc2)S(=O)(=O)N1Cc1ccc(C(=O)N(C)C2CCS(=O)(=O)C2)cc1 (stereo partly drawn) [Example 289, N-(1,1-Dioxo-tetrahydro-thiophen-3-yl)-N-methyl-4-((3S)-methyl-1,1-dioxo-6-phenyl-[1,2]thiazinan-2-ylmethyl)-benzamide]",1740
3,"C[C@H]1CCC(c2ccccc2)S(=O)(=O)N1Cc1ccc(C(=O)N2CCCC2CO)cc1 (stereo partly drawn) [Example 290, (2-Hydroxymethyl-pyrrolidin-1-yl)-[4-((3S)-methyl-1,1-dioxo-6-phenyl-[1,2]thiazinan-2-ylmethyl)-phenyl]-methanone]",1500
4,"C[C@H]1CCC(c2ccccc2)S(=O)(=O)N1Cc1ccc(C(=O)N2CCC[C@@H]2CO)cc1 (stereo partly drawn) [Example 291, (2-Hydroxymethyl-pyrrolidin-1-yl)-[4-((3S)-methyl-1,1-dioxo-6-phenyl-[1,2]thiazinan-2-ylmethyl)-phenyl]-methanone]",911
5,"C[C@H]1CCC(c2ccccc2)S(=O)(=O)N1Cc1ccc(C(=O)NCC2CCOCC2)cc1 (stereo partly drawn) [Example 292, 4-((3S)-Methyl-1,1-dioxo-6-phenyl-[1,2]thiazinan-2-ylmethyl)-N-(tetrahydro-pyran-4-ylmethyl)-benzamide]",660
6,"C[C@H]1CCC(c2ccccc2)S(=O)(=O)N1Cc1ccc(C(=O)N2CCOC(C(=O)N(C)C)C2)cc1 (stereo partly drawn) [Example 293, 4-[4-((3S)-Methyl-1,1-dioxo-6-phenyl-[1,2]thiazinan-2-ylmethyl)-benzoyl]-morpholine-2-carboxylic acid dimethylamide]",8310
7,"C[C@H]1CCC(c2ccccc2)S(=O)(=O)N1Cc1ccc(C(=O)N2CCC(CCNS(C)(=O)=O)CC2)cc1 (stereo partly drawn) [Example 294, N-(2-{1-[4-((3S)-Methyl-1,1-dioxo-6-phenyl-[1,2]thiazinan-2-ylmethyl)-benzoyl]-piperidin-4-yl}-ethyl)-methanesulfonamide]",1770
8,"C[C@H]1CCC(c2ccccc2)S(=O)(=O)N1Cc1ccc(C(=O)N2CC(c3nncn3C)C2)cc1 (stereo partly drawn) [Example 295, [4-((3S)-Methyl-1,1-dioxo-6-phenyl-[1,2]thiazinan-2-ylmethyl)-phenyl]-[3-(4-methyl-4H-[1,2,4]triazol-3-yl)-azetidin-1-yl]-methanone]",5350
9,"C[C@H]1CCC(c2ccccc2)S(=O)(=O)N1Cc1ccc(C(=O)N2CCn3ccnc3C2)cc1 (stereo partly drawn) [Example 296, (5,6-Dihydro-8H-imidazo[1,2-a]pyrazin-7-yl)-[4-((3S)-methyl-1,1-dioxo-6-phenyl-[1,2]thiazinan-2-ylmethyl)-phenyl]-methanone]",1290
10,"C[C@H]1CCC(c2ccccc2)S(=O)(=O)N1Cc1ccc(C(=O)N2CC(c3cc[nH]n3)C2)cc1 (stereo partly drawn) [Example 297, [4-((3S)-Methyl-1,1-dioxo-6-phenyl-[1,2]thiazinan-2-ylmethyl)-phenyl]-[3-(1H-pyrazol-3-yl)-azetidin-1-yl]-methanone]",2690
11,"C[C@H]1CCC(c2ccccc2)S(=O)(=O)N1Cc1ccc(C(=O)N2CCOC(C(N)=O)C2)cc1 (stereo partly drawn) [Example 298, 4-[4-((3S)-Methyl-1,1-dioxo-6-phenyl-[1,2]thiazinan-2-ylmethyl)-benzoyl]-morpholine-2-carboxylic acid amide]",4720
12,"CNC(=O)C1CN(C(=O)c2ccc(CN3[C@@H](C)CCC(c4ccccc4)S3(=O)=O)cc2)CCO1 (stereo partly drawn) [Example 299, 4-[4-((3S)-Methyl-1,1-dioxo-6-phenyl-[1,2]thiazinan-2-ylmethyl)-benzoyl]-morpholine-2-carboxylic acid methylamide]",4930
13,"C=C1CCC(c2ccccc2)S(=O)(=O)N(Cc2ccc(N3CCN(C(C)=O)CC3)cc2F)C1 (stereo not shown) [Example 348, 1-{4-[3-Fluoro-4-(4-methylene-1,1-dioxo-7-phenyl-[1,2]thiazepan-2-ylmethyl)-phenyl]-piperazin-1-yl}-ethanone]",49
14,"CC(=O)N1CCN(c2ccc(CN3[C@H](C)CC(c4ccccc4)S3(=O)=O)c(F)c2)CC1 (stereo partly drawn) [Example 349, 1-{4-[3-Fluoro-4-((3R)-methyl-1,1-dioxo-5-phenyl-isothiazolidin-2-ylmethyl)-phenyl]-piperazin-1-yl}-ethanone]",310
15,"C[C@H]1CCC(c2ccccc2)S(=O)(=O)N1Cc1ccc(C(=O)N2CCC3(COC3)C2)cc1 (stereo partly drawn) [Example 354, [4-((3S)-Methyl-1,1-dioxo-6-phenyl-[1,2]thiazinan-2-ylmethyl)-phenyl]-(2-oxa-6-aza-spiro[3.4]oct-6-yl)-methanone]",3010
16,"C[C@H]1CCC(c2ccccc2)S(=O)(=O)N1Cc1ccc(C(=O)N2C3CCC2C(C(N)=O)C3)cc1 (stereo partly drawn) [Example 355, 7-[4-((3S)-Methyl-1,1-dioxo-6-phenyl-[1,2]thiazinan-2-ylmethyl)-benzoyl]-7-aza-bicyclo[2.2.1]heptane-2-carboxylic acid amide]",510

row,SMILES,IC50 [nM]
1,"C[C@H]1CCC(c2ccccc2)S(=O)(=O)N1Cc1ccc(C(=O)N2CC3(CCCOC3)C2)cc1 (stereo partly drawn) [Example 356, [4-((3S)-Methyl-1,1-dioxo-6-phenyl-[1,2]thiazinan-2-ylmethyl)-phenyl]-(6-oxa-2-aza-spiro[3.5]non-2-yl)-methanone]",3170
2,"C[C@H]1CCC(c2ccccc2)S(=O)(=O)N1Cc1ccc(C(=O)N2CCCC2CCNS(C)(=O)=O)cc1 (stereo partly drawn) [Example 357, N-(2-{1-[4-((3S)-Methyl-1,1-dioxo-6-phenyl-[1,2]thiazinan-2-ylmethyl)-benzoyl]-pyrrolidin-2-yl}-ethyl)-methanesulfonamide]",108
3,"C[C@H]1CCC(c2ccccc2)S(=O)(=O)N1Cc1ccc(C(=O)N2CCC3(CCOC3)C2)cc1 (stereo partly drawn) [Example 358, [4-((3S)-Methyl-1,1-dioxo-6-phenyl-[1,2]thiazinan-2-ylmethyl)-phenyl]-(2-oxa-7-aza-spiro[4.4]non-7-yl)-methanone]",1220
4,"CC(=O)NCCC1CCN(C(=O)c2ccc(CN3[C@@H](C)CCC(c4ccccc4)S3(=O)=O)cc2)CC1 (stereo partly drawn) [Example 359, N-(2-{1-[4-((3S)-Methyl-1,1-dioxo-6-phenyl-[1,2]thiazinan-2-ylmethyl)-benzoyl]-piperidin-4-yl}-ethyl)-acetamide]",2030
5,"C[C@H]1CCC(c2ccccc2)S(=O)(=O)N1Cc1ccc(C(=O)N2C3CNC(=O)C2C3)cc1 (stereo partly drawn) [Example 360, 6-[4-((3S)-Methyl-1,1-dioxo-6-phenyl-[1,2]thiazinan-2-ylmethyl)-benzoyl]-3,6-diaza-bicyclo[3.1.1]heptan-2-one]",3450
6,"C[C@H]1CCC(c2ccccc2)S(=O)(=O)N1Cc1ccc(C(=O)N2CCOC3(CCOC3)C2)cc1 (stereo partly drawn) [Example 361, (2,6-Dioxa-9-aza-spiro[4.5]dec-9-yl)-[4-((3S)-methyl-1,1-dioxo-6-phenyl-[1,2]thiaznan-2-ylmethyl)-phenyl]-methanone]",641
7,"C[C@H]1CCC(c2ccccc2)S(=O)(=O)N1Cc1ccc(C(=O)N2CCC3(CC2)COC3)cc1 (stereo partly drawn) [Example 362, [4-((3S)-Methyl-1,1-dioxo-6-phenyl-[1,2]thiazinan-2-ylmethyl)-phenyl]-(2-oxa-7-aza-spiro[3.5]non-7-yl)-methanone]",903
8,"C[C@H]1CCC(c2ccccc2)S(=O)(=O)N1Cc1ccc(C(=O)N2CCN(C)C(=O)C2)cc1 (stereo partly drawn) [Example 363, 1-Methyl-4-[4-((3S)-methyl-1,1-dioxo-6-phenyl-[1,2]thiazinan-2-ylmethyl)-benzoyl]-piperazin-2-one]",2430
9,"C[C@H]1CCC(c2ccccc2)S(=O)(=O)N1Cc1ccc(C(=O)N2CC3COCC3C2)cc1 (stereo partly drawn) [Example 364, [4-((3S)-Methyl-1,1-dioxo-6-phenyl-[1,2]thiazinan-2-ylmethyl)-phenyl]-(tetrahydro-furo[3,4-c]pyrrol-5-yl)-methanone]",2920
10,"C[C@H]1CCC(c2ccccc2)S(=O)(=O)N1Cc1ccc(C(=O)N2CCc3cn[nH]c3C2)cc1 (stereo partly drawn) [Example 365, [4-((3S)-Methyl-1,1-dioxo-6-phenyl-[1,2]thiazinan-2-ylmethyl)-phenyl]-(1,4,5,7-tetrahydro-pyrazolo[3,4-c]pyridin-6-yl)-methanone]",1350
11,"CC(=O)N1CC2(C1)CN(C(=O)c1ccc(CN3[C@@H](C)CCC(c4ccccc4)S3(=O)=O)cc1)C2 (stereo partly drawn) [Example 366, 1-{6-[4-((3S)-Methyl-1,1-dioxo-6-phenyl-[1,2]thiazinan-2-ylmethyl)-benzoyl]-2,6-diaza-spiro[3.3]hept-2-yl}-ethanone]",5280
12,"CC(=O)N1CC2CC2(NC(=O)c2ccc(CN3[C@@H](C)CCC(c4ccccc4)S3(=O)=O)cc2)C1 (stereo partly drawn) [Example 367, N-(3-Acetyl-3-aza-bicyclo[3.1.0]hex-1-yl)-4-((3S)-methyl-1,1-dioxo-6-phenyl-[1,2]thiazinan-2-ylmethyl)-benzamide]",2270
13,"CC1CN(C(=O)c2ccc(CN3[C@@H](C)CCC(c4ccccc4)S3(=O)=O)cc2)CC(=O)N1 (stereo partly drawn) [Example 368, 6-Methyl-4-[4-((3S)-methyl-1,1-dioxo-6-phenyl-[1,2]thiazinan-2-ylmethyl)-benzoyl]-piperazin-2-one]",2360
14,"C[C@H]1CCC(c2ccccc2)S(=O)(=O)N1Cc1ccc(C(=O)NC2(C#N)CCC2)cc1 (stereo partly drawn) [Example 369, N-(1-Cyano-cyclobutyl)-4-((3S)-methyl-1,1-dioxo-6-phenyl-[1,2]thiazinan-2-ylmethyl)-benzamide]",3480
15,"C[C@H]1CCC(c2ccccc2)S(=O)(=O)N1Cc1ccc(C(=O)N2CC3(CCOCC3)C2)cc1 (stereo partly drawn) [Example 370, [4-((3S)-Methyl-1,1-dioxo-6-phenyl-[1,2]thiazinan-2-ylmethyl)-phenyl]-(7-oxa-2-aza-spiro[3.5]non-2-yl)-methanone]",1060
